Measured values reported in article PMC4790305, “An FDA-Drug Library Screen for Compounds with Bioactivities against Meticillin-Resistant Staphylococcus aureus (MRSA)” (Antibiotics, 2015).
≈ marks a conversion by molar mass, not a printed value. Read-outs that look alike come from different tables or passages of the source.

What was measured:
[1] = system: MRSA USA 100 (ATCCBAA-1681); assay: Minimum inhibitory concentration (MIC) assay, MRSA USA 100; type: cell-based, meticillin-resistant Staphylococcus aureus; conditions: Staphylococcus aureus, read-out: MRSA MICs USA 100
Excerpt: (§1) The 1163 FDA-approved drugs were purchased as a library set from Selleckchem (catalog #L1300). For MIC assays, Ivacaftor, Mupirocin and Tigecycline were purchased from Santa Cruz Biotechnology (Dallas, TX, USA). All other test compounds were purchased from Sigma-Aldrich (St. Louis, MO, USA) and were used without further purification. MRSA strains USA 100 (ATCCBAA-1681), USA 300 (ATCC-BAA-1680), USA400 (ATCC-BAA-1707) and VISA (ATCC-700699) were purchased from ATCC (Manassas, VA, USA).
(§2) The MICs of antibiotics and peptides were determined using the microdilution method from the Clinical and Laboratory Standards Institute (CLSI) guidelines. Briefly, bacteria were grown fresh from frozen stock in MH2 agar at 37 °C. After an overnight incubation, five MRSA colonies were selected to grow in cation-adjusted MH2 broth (BD Biosciences catalog #212322) in a shaker incubator at 37 °C, 220 RPM. Cells were grown to an optical density (OD600) of 0.15–0.16 using a Microplate Spectrophotometer (Molecular Devices Spectra Max Plus), which corresponds to 1–2 × 10^8 CFU/mL. Test compounds were constituted into 4 mM DMSO stock solutions and then subjected to two-fold serial dilution in a 96-well plate with concentrations ranging from 100 to 0.2 μM in duplicates. The amount of 50 μL of microbial culture containing ~1–2 × 10^6 CFU/mL of microbes in the respective broths was introduced into each well containing 50 μL of compound. After an overnight incubation at 35 °C, OD600 measurements were conducted using the Microplate Spectrophotometer. The MIC was defined as the lowest drug concentration (μM) required to inhibit microbial growth.

[2] = system: Adult normal human epidermal keratinocytes (NHEK); assay: Human epidermal keratinocyte viability (GI50) assay; type: cell-based; conditions: 120 h, read-out: Keratinocyte GI50
Description: Adult normal human epidermal keratinocytes (NHEK) were purchased from Lonza (catalog #00192627, Basel, Switzerland) and cultured in keratinocyte growth medium (Lonza KGM-Gold Bullet Kit) containing growth supplements (Lonza Reagent Pack) at 5% CO2 (37 °C). The cell viability assay was performed using the CellTiter-Glo Luminescent Cell Viability Assay protocol from Promega (www.promega.com, Fitchburg, WI, USA). Briefly, NHEK were treated with test compounds in keratinocyte growth medium in 96-well plates (Thermo Scientific Nunclon Delta, Waltham, MA, USA). Treated cells were incubated for 5 days at 5% CO2 (37 °C). Promega CellTiter-Glo Reagent was added and plates were shaken on an orbital shaker for […]. Next, well contents (100 μL) from each well were transferred into opaque 96-well plates (PerkinElmer OptiPlate-96) and luminescence measured by a microplate reader (Tecan Safire2).

[3] = system: panel of clinical MRSA strains (USA 100, USA 300, USA 400 and VISA); assay: MIC assay against panel of clinical MRSA strains; type: cell-based, meticillin-resistant Staphylococcus aureus; conditions: Staphylococcus aureus, across USA 100, USA 300, USA 400 and VISA
Excerpt: as §1, §2

[4] = intravenously administered; cited from earlier work
[5] = system: mouse; parameters: method as in PMID 12724731; conditions: cited from earlier work
[6] = system: VISA (ATCC-700699); assay: Minimum inhibitory concentration (MIC) assay, VISA; type: cell-based, meticillin-resistant Staphylococcus aureus; conditions: Staphylococcus aureus, ATCC 700699 / MRSA / VISA, read-out: MRSA MICs VISA
Excerpt: as §1, §2

[7] = system: MRSA USA400 (ATCC-BAA-1707); assay: Minimum inhibitory concentration (MIC) assay, MRSA USA 400; type: cell-based, meticillin-resistant Staphylococcus aureus; conditions: Staphylococcus aureus, read-out: MRSA MICs USA 400
Excerpt: as §1, §2

[8] = system: MRSA USA 300 (ATCC-BAA-1680); assay: Minimum inhibitory concentration (MIC) assay, MRSA USA 300; type: cell-based, meticillin-resistant Staphylococcus aureus; conditions: Staphylococcus aureus, read-out: MRSA MICs USA 300
Excerpt: as §1, §2

[9] = system: MRSA USA100; assay: Single-point 10 μM bacteria growth inhibition assay; type: cell-based, meticillin-resistant Staphylococcus aureus; conditions: MRSA USA 100
Excerpt: as §1
MRSA USA100 was grown from frozen glycerol stock on Mueller Hinton 2 (MH2) agar overnight at 37 °C. Five colonies were selected from the agar plate and grown in cation-adjusted MH2 broth (BD Biosciences catalog #212322, Franklin Lakes, NJ, USA) in a shaker incubator at 37 °C, 220 RPM. Cells were grown to 1–2 × 10^8 CFU/mL and diluted 1:100 in MH2 broth. An amount of 50 μL of test compounds pre-dissolved in MH2 broth at 20 μM concentrations were added in duplicates into each well in a 96-well plate. A total of 50 μL of bacteria inoculums containing ~1 × 10^6 CFU/mL of bacteria in MH2 broth was introduced into each well containing the test compounds. The final DMSO concentration was kept at 2.5% in each well. After an overnight incubation at 35 °C, optical density (OD600) of each well was determined using the Microplate Spectrophotometer (Molecular Devices Spectra Max Plus, Sunnyvale, CA, USA).

[10] = system: MRSA USA300; assay: Bactericidal/static determination assay; type: cell-based, meticillin-resistant Staphylococcus aureus; conditions: MRSA USA300, 4× MIC; bactericidal when ≥99.9% cell death
Description: After the MICs of test compounds were determined using the microdilution method described in Section 2.2, the entire well contents (100 μL) corresponding to 4× the MIC of the antibiotic or peptide were transferred and spread on fresh sterile MH2 agar plates. The plates were incubated overnight at 37 °C and the number of colony forming units (CFU) was determined the next day. A compound was classified as bactericidal when ≥99.9% cell death was observed.

[11] = system: rats; conditions: rat, cited from earlier work
[12] = system: MRSA USA300; assay: Time-kill assay; type: cell-based, meticillin-resistant Staphylococcus aureus; conditions: MRSA USA300, 4× MIC, within 6 h
Description: Bacteria cells were grown to 1 × 10^8 CFU/mL in MH2 broth and then diluted […] into 5 mL aliquots to a density of 1 × 10^6 CFU/mL in a flask. Test compounds pre-dissolved in DMSO corresponding to 4× their MICs were then added into each flask with a final DMSO concentration of 2.5% v/v. The negative control was 2.5% DMSO. The flasks were incubated in a shaking incubator (220 RPM) at 37 °C. Samples (100 μL) were taken hourly from the flasks between t = 0 and t = 6 h. The samples were serially diluted in MH2 broth before plating on sterile MH2 agar and incubated overnight at 37 °C. A bacteria count for each plate was conducted the next day. A graph of Log CFU/mL was plotted against time to obtain the time-kill graph.

[13] = system: human carcinoma cell lines; conditions: cited from earlier work
[14] = cited from earlier work
[15] = 5 days incubation, CellTiter-Glo
[16] = printed conversion of μM values

Compound	MIC ([1]; microdilution, overnight 35 °C) [µM]	GI50 [2, 15] [µM]	MIC [3] [µM]	MIC ([6]; microdilution, overnight 35 °C) [µM]	MIC ([7]; microdilution, overnight 35 °C) [µM]	MIC ([8]; microdilution, overnight 35 °C) [µM]	Antibacterial activity in single-point screen [9]	also measured
O=c1[nH]cc(F)c(=O)[nH]1 [5-fluorouracil, 5-Fluorouracil]	6.25 (≈ 0.813 µg/mL)	33.3 ± 2.6	3.13 to 6.25	6.25 (≈ 0.813 µg/mL)	3.13 (≈ 0.407 µg/mL)	3.13 (≈ 0.407 µg/mL)	either bacteriostatic or bactericidal	half-life [4]: 10 to 16 min; intravenous LD50 [5]: 81 mg/kg
CCC[C@@H]1C[C@@H](C(=O)N[C@@H]([C@H]2O[C@H](SC)[C@H](O)[C@@H](O)[C@H]2O)[C@H](C)Cl)N(C)C1 [Clindamycin]	> 100	> 50	–	> 100	0.2 (≈ 0.085 µg/mL)	0.2 (≈ 0.085 µg/mL)	–	–
C[C@H]1c2cccc(O)c2C(=O)C2=C(O)[C@]3(O)C(=O)C(C(N)=O)=C(O)[C@@H](N(C)C)[C@@H]3[C@@H](O)[C@@H]21 [Doxycycline]	0.39 (≈ 0.173 µg/mL)	36.9 ± 3.7	–	12.5 (≈ 5.56 µg/mL)	1.56 (≈ 0.693 µg/mL)	0.78 (≈ 0.347 µg/mL)	–	–
O=c1[nH]c(=O)n([C@H]2C[C@H](O)[C@@H](CO)O2)cc1F [Floxuridine]	0.025 (≈ 0.00615 µg/mL)	> 100	0.00313 to 0.025	0.00625 (≈ 0.00154 µg/mL)	0.0125 (≈ 0.00308 µg/mL)	0.00313 (≈ 0.000771 µg/mL)	either bacteriostatic or bactericidal	MIC [3, 16]: 0.77 to 6.16 ng/mL; Bactericidal/static classification [10]: bactericidal; intraperitoneal LD50 ([11]; intraperitoneal): 1600 mg/kg; log reduction in bacteria count [12]: ~2 log
Nc1ccn([C@@H]2O[C@H](CO)[C@@H](O)C2(F)F)c(=O)n1 [Gemcitabine]	0.1 (≈ 0.0263 µg/mL)	1.9 ± 0.2	0.05 to 0.1	0.05 (≈ 0.0132 µg/mL)	0.1 (≈ 0.0263 µg/mL)	0.05 (≈ 0.0132 µg/mL)	either bacteriostatic or bactericidal	MIC [3, 16]: 10 to 20 ng/mL; intravenous LD50 ([11]; intravenous): 236 mg/kg
CC(C)(C)c1cc(C(C)(C)C)c(NC(=O)c2c[nH]c3ccccc3c2=O)cc1O [Ivacaftor]	6.25 (≈ 2.45 µg/mL)	5.9 ± 0.5	6.25	6.25 (≈ 2.45 µg/mL)	6.25 (≈ 2.45 µg/mL)	6.25 (≈ 2.45 µg/mL)	either bacteriostatic or bactericidal	–
CC(=O)NC[C@H]1CN(c2ccc(N3CCOCC3)c(F)c2)C(=O)O1 [Linezolid]	6.25 (≈ 2.11 µg/mL)	> 100	–	3.13 (≈ 1.06 µg/mL)	6.25 (≈ 2.11 µg/mL)	6.25 (≈ 2.11 µg/mL)	–	Bactericidal/static classification [10]: bacteriostatic; log reduction in bacteria count [12]: less than a log reduction
C/C(=C\C(=O)OCCCCCCCCC(=O)O)C[C@@H]1OC[C@H](C[C@@H]2O[C@H]2[C@@H](C)[C@H](C)O)[C@@H](O)[C@H]1O [Mupirocin]	0.78 (≈ 0.39 µg/mL)	> 50	–	> 100	0.39 (≈ 0.195 µg/mL)	0.39 (≈ 0.195 µg/mL)	–	–
O=C(Nc1ccc([N+](=O)[O-])cc1Cl)c1cc(Cl)ccc1O [Niclosamide]	0.78 (≈ 0.255 µg/mL)	< 0.2	0.39 to 0.78	0.39 (≈ 0.128 µg/mL)	0.78 (≈ 0.255 µg/mL)	0.39 (≈ 0.128 µg/mL)	either bacteriostatic or bactericidal	cytotoxic concentrations towards human carcinoma cell lines [13]: sub-micromolar; oral LD50 [14]: > 1000 mg/kg
OC1(c2ccc(Cl)c(C(F)(F)F)c2)CCN(CCCC(c2ccc(F)cc2)c2ccc(F)cc2)CC1 [Penfluridol]	3.13 (≈ 1.64 µg/mL)	2.1 ± 0.6	3.13	3.13 (≈ 1.64 µg/mL)	3.13 (≈ 1.64 µg/mL)	3.13 (≈ 1.64 µg/mL)	either bacteriostatic or bactericidal	–
CN(C)c1cc(NC(=O)CNC(C)(C)C)c(O)c2c1C[C@H]1C[C@H]3[C@H](N(C)C)C(O)=C(C(N)=O)C(=O)[C@@]3(O)C(O)=C1C2=O [Tigecycline]	0.78 (≈ 0.457 µg/mL)	20.6 ± 4.2	–	1.56 (≈ 0.914 µg/mL)	0.78 (≈ 0.457 µg/mL)	0.78 (≈ 0.457 µg/mL)	–	–
CN[C@H](CC(C)C)C(=O)N[C@H]1C(=O)N[C@@H](CC(N)=O)C(=O)N[C@H]2C(=O)N[C@H]3C(=O)N[C@H](C(=O)N[C@H](C(=O)O)c4cc(O)cc(O)c4-c4cc3ccc4O)[C@H](O)c3ccc(c(Cl)c3)Oc3cc2cc(c3O[C@@H]2O[C@H](CO)[C@@H](O)[C@H](O)[C@H]2O[C@H]2C[C@](C)(N)[C@H](O)[C@H](C)O2)Oc2ccc(cc2Cl)[C@H]1O [Vancomycin]	–	–	–	–	–	–	–	MIC [1]: 0.78 µM (≈ 1.13 µg/mL); GI50 [2]: > 100 µM; MIC [6]: 6.25 µM (≈ 9.06 µg/mL); MIC [7]: 0.78 µM (≈ 1.13 µg/mL); MIC [8]: 0.78 µM (≈ 1.13 µg/mL)
